Assay results: US20180354980A1, “NOVEL TRITERPENE-GLYCOSIDES AS SWEETENERS OR SWEETENER ENHANCER” (Analyticon Discovery GmbH, priority 2015, published 2018)

How the values were obtained:
[1] = system: panel; details: ammonium salt; panel rating; cited from earlier work
[2] = in vivo; cited from earlier work
[3] = system: panel of 4 panelists; assay: Organoleptic test of the compounds against sucrose and Pterocaryoside A; assay type: in vivo; parameters: key to sweetness compared to sucrose: 3: sweeter than the control solution; 2: sweetness comparable with the control solution; 1: less sweet than the control solution but still sweet; details: for sweetness compared to sucrose: 0.4 mg/ml (400 ppm) in non-carbonated mineral water vs sucrose 20 mg/ml, panel of 4 panelists; for comment (bitter off taste): 0.4 mg/ml (400 ppm) in non-carbonated mineral water, compared with Pterocaryoside A
Method: (§1) The isolated pure compounds were dissolved in non-carbonated mineral water (“Fonsana Quelle”) in a concentration of 0.4 mg/ml (400 ppm). The sweet taste of each sample was compared by a panel of 4 panelists with a solution of sucrose in a concentration of 20 mg/ml.

[4] = Solubility in non-carbonated mineral water at the test concentration; assay type: physicochemical; details: 0.4 mg/ml in non-carbonated mineral water
Method: as §1

Compound	sweetness compared to sucrose [3]	comment (bitter off taste) [3]	other results
Pterocaryoside B	–	–	off-taste [1]: persistent, mildly bitter, off-taste; onset of sweetness [1]: instantaneous; sweetness relative to sucrose [1]: about 100 times sweeter than 2% sucrose
C[C@H](CC[C@@H](O[C@@H]1O[C@H](CO[C@@H]2O[C@H](CO)[C@@H](O)[C@H](O)[C@H]2O)[C@@H](O)[C@H](O)[C@H]1O[C@@H]1O[C@H](CO)[C@@H](O)[C@H](O)[C@H]1O)C(C)(C)O)[C@H]1CC[C@@]2(C)[C@@H]3CC=C4[C@@H](CC[C@H](O[C@@H]5O[C@H](CO[C@@H]6O[C@H](CO)[C@@H](O)[C@H](O)[C@H]6O)[C@@H](O)[C@H](O)[C@H]5O)C4(C)C)[C@]3(C)[C@H](O)C[C@]12C [mogroside V]	–	–	aftertaste [2]: certain bitter aftertaste
C=C(C)C(O)C(O)CC(C)(O)C1CCC2(C)C1C(O[C@@H]1O[C@H](C)[C@@H](O)[C@H](O)[C@H]1O)CC1C(C)(CCC(=O)O)C(C(=C)C)CCC12C (stereo partly drawn) [Compound C, 3-(6,9a,9b-trimethyl-7-(prop-1-en-2-yl)-3-(2,4,5-trihydroxy-6-methylhept-6-en-2-yl)-4-((2R,3R,4S,5S,6R)-3,4,5-trihydroxy-6-methyltetrahydro-2H-pyran-2-yloxy)dodecahydro-1H-cyclopenta[a]naphthalen-6-yl)propanoic acid]	3	less bitter than Pterocaryoside A	–
C=C(C)C1CCC2(C)C(CC(O[C@@H]3OC[C@H](O)[C@H](O)[C@H]3O)C3C(C(C)=O)CCC32C)C1(C)CCC(=O)O (stereo partly drawn) [Compound E, 3-(3-acetyl-6,9a,9b-trimethyl-7-(prop-1-en-2-yl)-4-((2S,3R,4S,5S)-3,4,5-trihydroxytetrahydro-2H-pyran-2-yloxy)dodecahydro-1H-cyclopenta[a]naphthalen-6-yl)propanoic acid]	3	less bitter than Pterocaryoside A	–
Pterocaryoside A	–	strong bitter and slightly hot off-taste	sweetness compared with the sucrose solution (in words) ([3]; solution at desired 0.4 mg/ml, not completely dissolved, vs sucrose 20 mg/ml): comparable to the sweetness of the sucrose solution; solubility at the desired concentration [4]: not completely soluble; off-taste [1]: persistent, mildly bitter, off-taste; onset of sweetness [1]: instantaneous; sweetness relative to sucrose [1]: about 50 times sweeter than 2% sucrose
C[C@H](CC[C@@H](O[C@@H]1O[C@H](CO[C@@H]2O[C@H](CO)[C@@H](O)[C@H](O)[C@H]2O)[C@@H](O)[C@H](O)[C@H]1O[C@@H]1O[C@H](CO)[C@@H](O)[C@H](O)[C@H]1O)C(C)(C)O)[C@H]1CC[C@@]2(C)[C@@H]3CC=C4[C@@H](CC[C@H](O[C@@H]5O[C@H](CO)[C@@H](O[C@@H]6O[C@H](CO)[C@@H](O)[C@H](O)[C@H]6O)[C@H](O)[C@H]5O)C4(C)C)[C@]3(C)[C@H](O)C[C@]12C [iso-mogroside V]	–	–	aftertaste [2]: certain bitter aftertaste
C=C(C)C(O)CCC(C)(O)C1CCC2(C)C1C(OC1OC(COC(C)=O)C(O)C1O)CC1C(C)(CCC(=O)O)C(C(=C)C)CCC12C (stereo not drawn) [Compound B, 3-(4-(5-(acetoxymethyl)-3,4-dihydroxytetrahydrofuran-2-yloxy)-3-(2,5-dihydroxy-6-methylhept-6-en-2-yl)-6,9a,9b-trimethyl-7-(prop-1-en-2-yl)dodeca hydro-1H-cyclopenta[a]naphthalen-6-yl)propanoic acid]	1	slightly bitter off taste comparable to	–
C=C(C)C(O)C(O)CC(C)(O)C1CCC2(C)C1C(O[C@@H]1OCC(O)[C@H](O)[C@H]1O)CC1C(C)(CCC(=O)O)C(C(=C)C)CCC12C (stereo in doubt) [Compound D, 3-(6,9a,9b-trimethyl-7-(prop-1-en-2-yl)-3-(2,4,5-trihydroxy-6-methylhept-6-en-2-yl)-4-((2S,3R,4S,5S)-3,4,5-trihydroxytetrahydro-2H-pyran-2-yloxy)dodecahydro-1H-cyclopenta[a]naphthalen-6-yl)propanoic acid]	3	less bitter than Pterocaryoside A	–
C=C(C)C1CCC2(C)C(CC(O[C@@H]3OC[C@H](O)[C@H](O)[C@H]3O)C3C(C4(C)CCC(C(C)(C)O)O4)CCC32C)C1(C)CCC(=O)O (stereo partly drawn) [Compound A, 3-(3-(5-(2-hydroxypropan-2-yl)-2-methyltetrahydrofuran-2-yl)-6,9a,9b-trimethyl-7-(prop-1-en-2-yl)-4-((2S,3R,4S,5S)-3,4,5-trihydroxytetrahydro-2H-pyran-2-yloxy)dodecahydro-1H-cyclopenta[a]naphthalen-6-yl)propanoic acid]	3	less bitter than Pterocaryoside A	–
